Data set [1] is described as follows: Parecoxib concentration in synovial joint fluid after Bio-Gel injection in Hoffa's fat pad (HPLC). The data set is classed as in vivo, Wistar rats. Particulars: 0.1 ml Bio-Gel containing 500 μg Parecoxib in Hoffa's fat pad. The protocol:
After induction of general anaesthesia, both knees of Wistar rats were shaved and prepared for aseptic surgery. The centre of the patella tendon was identified. A 28 G needle with a 1 ml syringe was used to penetrate the centre patella tendon. Directly after the patella tendon is penetrated and 0.1 ml of the Bio-Gel containing 500 μg of Parecoxib was injected in Hoffa's fad pad. Directly after injection, 1 day, 5 days, 10 days and 30 days after injection the rats were sacrificed.
The concentration of parecoxib in the SJF was examined using a high-performance liquid chromatography

Data set [2] deals with cartilage only defect on medial femoral condyles. The data set is described as follows: Goat cartilage defect repair (MACI / microfracture) with Bio-Gel containing Parecoxib in Hoffa's fatpad. The data set is classed as in vivo, Dutch milk goats. The settings on record: controlled release from Hoffa's fatpad; summary statement. The protocol: Surgical procedure: Skeletally mature Dutch milk goats were used for this study. During the first operation, both knee joints of the goats were opened using a medial parapatellar incision. Using a 8 mm in diameter dermal punch a cartilage only defect was created on both medial femoral condyles. The cartilage of both sides was minced and after an overnight collagenase treatment, cells were isolated and expanded in monolayer. […] Consequently these cells were seeded and allowed to attach in a collagen carrier for 24 hrs as described earlier as Matrix-supported Autologous Chondrocyte Implantation (MACI). Hereafter a second operation was performed. The knee joints were opened and one the cartilage defect of one knee joint was repaired using the MACI method. The defect in the other knee joint was repaired using microfracturing as described by […] et al. In 10 goats Hoffa's fatpad was injected (as described earlier) with a Bio-Gel containing 1.5 mg of Parecoxib, in 10 goats Hoffa's fatpad was injected (as described earlier) with a Bio-Gel only, and in 10 goats no injection was performed. Goats were allowed full-weight bearing after both surgical procedures. Histological evaluation: 3 months after the second operation, goats were sacrificed. […] Mankin scores for OA grading and O'Driscoll scores for cartilage repair were scored by 2 blinded individuals.

The test system of data set [3] is anterior cruciate ligament-transected (ACLT) knees. Particulars: cited from earlier work.
[4] abbreviates: intra-articular parecoxib injection.

The source of these data is patent US8962666B2, “Method for improving cartilage repair and/or preventing cartilage degeneration in a joint” (Maastricht University, priority 2009, dated 2015).

For the compound `CCC(=O)NS(=O)(=O)c1ccc(-c2c(-c3ccccc3)noc2C)cc1` [Parecoxib], in data set [1] (after 30 days follow), the “intra-articular level of parecoxib” value is recorded as “remained stable”. Further, the “time of maximum parecoxib level in the SJF” value in data set [1] (time after injection) was 1 days. Also, the “cartilage repair using MACI and microfracturing” value in data set [2] was “significantly improved”. Also, in data set [3] (ACLT knees, intra-articular injection), the cartilage degeneration entry was “significant inhibition”. For the same compound, the “effect on cartilage and synovium of normal knees” value in data set [3] (intra-articular parecoxib alone, naive rats) is listed as “did not have any effect”. Besides, in data set [3] (setting [4]), the “glutamate and aspartate levels” value is “reduced”; the synovial inflammation entry was “suppressed”.
